Test results taken from publication PMC6497007, “Development, Validation of LC-MS/MS Method and Determination of Pharmacokinetic Parameters of the Stroke Neuroprotectant Neurounina-1 in Beagle Dog Plasma After Intravenous Administration” (Frontiers in Pharmacology, 2019).
Read-outs that look alike come from different tables or passages of the source.

Legend:
[1] = Stability tests in beagle dog plasma (QC samples); format: in vitro ADME
Protocol: To assess stability, QC plasma samples (1.5 and 400.0 ng/mL) were subjected to short-term (6 h) incubation at room temperature; four freeze/thaw (-20°C) cycles and 52 h in the autosampler at room temperature. Subsequently, the neurounina-1 concentrations were measured and compared with freshly prepared samples.

[2] = tested on: beagle dogs; experiment: Tolerability in beagle dogs after intravenous administration; format: in vivo, beagle dog; conditions: single i.v. 0.1, 0.3 and 1 mg/kg
Protocol: (§1) Beagle dogs (n = 5) of both sexes, aged between 2 and 3 years old, weighing between 10 and 14 kg were provided by Camilo Castelo Branco University, Brazil. The dogs were housed in Domingos Alves Veterinary Hospital in individual rooms and fed with a standard canine food. They had free access to water. The dogs underwent rigorous veterinary control and were all considered healthy based on physical examination and laboratory analysis performed before initiation and after completion of each occasion of the study. At the end of the study, the animals were returned to their habitat. This study was carried out in accordance with the recommendations of the general ethical guidelines established by the Brazilian Society for Laboratory Animal Science (SBCAL). The protocol was approved by the Committee for Ethics in Animal Use – State University of Campinas (CEUA/UNICAMP, protocol n° 3340-1).
After an overnight (8 h) fasting, a single intravenous dose of 0.1 mg/kg, 0.3 mg/kg, or 1 mg/kg neurounina-1 formulation was administered to beagle dogs, with 7 days washout period between each dose administration. Blood samples (5 mL) from a suitable antecubital vein were collected into heparin-containing tubes before and 0.03, 0.08, 0.17, 0.25, 0.33, 0.5, 1, 2, 3, 4, 6, 8, 12, and 24 h after the administration of each dose. A total of 210 mL of blood was collected during the study. […]

[3] = tested on: NCX1 and NCX2; parameters: method as in Molinaro et al., 2013; conditions: ref Molinaro et al., 2013; cited from earlier work
[4] = tested on: transient middle cerebral artery occlusion (tMCAO); parameters: method as in Molinaro et al., 2013; conditions: ref Molinaro et al., 2013, cited from earlier work
[5] = ref Molinaro et al., 2013; cited from earlier work
[6] = Pharmacokinetics in plasma after a single intravenous administration to beagle dogs (LC-MS/MS, non-compartmental analysis); format: in vivo, beagle dog; conditions: for C0 / Vd / clearance / k el / half-life: both sexes, beagle, dog, plasma, iv; for C0 / AUC0-inf / AUC0-tlast / AUC%extrap: beagle dog plasma; for k el: read-out: Ke (converted)
Protocol: Aliquots (0.05 mL) of each plasma sample were added to glass tubes followed by 0.05 mL of IS (ropivacaine 100 ng/mL). The tubes were vortexed for 5 s and 0.1 mL of acetonitrile were added. The samples were vortexed for 40 s, again, and then centrifuged at 2000 ×g for 5 min. The obtained supernatants were transferred to microvials for analysis.
Neuronina-1 was separated in a 150 mm × 4.6 mm x 5 μm Phenomenex C18Luna reversed phase analytical column (Phenomenex Inc., CA, United States). The temperature of the column was maintained constant at 65°C. The mobile phase used was composed by methanol/acetonitrile/water (50/40/10, v/v/v) + 0.1% of formic acid + 1 M ammonium formate at a flow rate of 1 mL/min (split 1:3). The auto-sampler was maintained at room temperature.
The mass spectrometer (Quattro Micro – Micromass, Waters, United Kingdom) equipped with an electrospray source in the ESI positive polarity mode (ES+) was configured for multiple reaction monitoring (MRM) to monitor the transitions 365.3 > 83.9 and 275.2 > 126.0, for neurounina-1 and ropivacaine, respectively. […] To optimize all MS parameters, a standard solution of the analyte and IS was infused into the mass spectrometer. The optimized values of ion spray voltage, collision energy, and cone voltage were, respectively 2800 (V), 20 (eV), and 20 (V) for neurounina-1 and 2800 (V), 15 (eV), and 15 (V) for ropivacaine. Data acquisition and analysis were performed using the software Masslynx 4.0 (Waters Corporation, Milford, MA, United States).
as §1
After an overnight (8 h) fasting, a single intravenous dose of 0.1 mg/kg, 0.3 mg/kg, or 1 mg/kg neurounina-1 formulation was administered to beagle dogs, with 7 days washout period between each dose administration. Blood samples (5 mL) from a suitable antecubital vein were collected into heparin-containing tubes before and 0.03, 0.08, 0.17, 0.25, 0.33, 0.5, 1, 2, 3, 4, 6, 8, 12, and 24 h after the administration of each dose. A total of 210 mL of blood was collected during the study. The blood samples treated with sodium heparin were centrifuged at approximately 2000 ×g for 10 min at 4°C and the plasma was stored at -20°C until analysis.
Non-compartmental analysis was used to determine the pharmacokinetic parameters of neurounina-1 after the intravenous administration. The concentration at time zero (C0) was estimated by back-extrapolating from the elimination curve. The area under the plasma concentration vs. time curves from zero to the last detectable concentration (AUC0-tlast) were calculated by applying the linear-log trapezoid rule. Extrapolation of these areas to infinity (AUC0-inf) was done by adding the value Clast/ke to the calculated AUC0-tlast (where Clast = the last detectable concentration). Clearance (CL) was calculated by the formula dose/AUC0-inf. Volume of distribution (Vd) was calculated by the formula CL/ke. The WinNonlin software, version 6.4 (Pharsight Corp, Mountain View, CA, United States) was used. Statistical analysis was performed using GraphPad Prism software, version 3.2 (GraphPad Software, San Diego, California, United States).

[7] = 0.1 mg/kg, mean, 0.1 mg/kg single i.v., beagle dog, n = 5
[8] = 0.1 mg/kg, median, 0.1 mg/kg single i.v., beagle dog, n = 5
[9] = 0.3 mg/kg, mean, 0.3 mg/kg single i.v., beagle dog, n = 5
[10] = 0.3 mg/kg, median, 0.3 mg/kg single i.v., beagle dog, n = 5
[11] = 1 mg/kg, mean, 1 mg/kg single i.v., beagle dog, n = 5
[12] = 1 mg/kg, median, 1 mg/kg single i.v., beagle dog, n = 5
[13] = mean, 0.1 mg/kg single i.v., n = 5
[14] = mean, 0.3 mg/kg single i.v., n = 5
[15] = mean, 1 mg/kg single i.v., n = 5
[16] = median, 0.1 mg/kg single i.v., n = 5
[17] = median, 0.3 mg/kg single i.v., n = 5
[18] = median, 1 mg/kg single i.v., n = 5

O=C1CN=C(c2ccccc2)c2cc([N+](=O)[O-])ccc2N1CN1CCCC1 [Neurounina-1, 7-nitro-5-phenyl-1-(pyrrolidin-1-ylmethyl)-1H-benzo[e][1,4]diazepin-2(3H)-one]
Stability, Accuracy(%) ([1]; Freeze/thaw (4cycles, -20°C), 1.5 ng/mL, beagle dog plasma): 92.7% | Stability, Accuracy(%) ([1]; Freeze/thaw (4cycles, -20°C), 400 ng/mL, beagle dog plasma): 101.3% | Stability, Accuracy(%) ([1]; Post-processing (52 h) in autosampler, 1.5 ng/mL, processed beagle dog plasma): 96.0% | Stability, Accuracy(%) ([1]; Post-processing (52 h) in autosampler, 400 ng/mL, processed beagle dog plasma): 101.8% | Stability, Accuracy(%) ([1]; Short-term (6 h) at room temperature, 1.5 ng/mL, beagle dog plasma): 94.7% | Stability, Accuracy(%) ([1]; Short-term (6 h) at room temperature, 400 ng/mL, beagle dog plasma): 106.5% | Degradation in stability tests ([1]; four freezing and thawing cycles, 6 h at room temperature, 52 h after processing in the self-injector, beagle dog plasma): no significant degradation | tolerability, behavior [2]: well tolerated | half maximal effective concentration (EC50) [3]: in the picomolar to low nanomolar range | time after ischemia induction at which the effect was still notable ([4]; 0.003 to 30 μg/kg intraperitoneally, mouse tMCAO): 5 h | most effective dosage in an animal model of stroke ([4]; administered 3 h after stroke induction): 0.03 µg/kg | protection in animal model of stroke ([4]; dose of 0.003 μg/Kg, compared with 0.03 μg/Kg): less marked | lipophilicity index [5]: high lipophilicity index | toxicity [5]: low toxicity | C0 ([6]; 0.1 mg/kg, mean, 0.1 mg/kg single i.v., back-extrapolated, n = 5): 32.5 ng/mL | Vd [6, 7]: 130 L | clearance [6, 7]: 771 mL/min | k el [6, 7]: 9.72e-05 s⁻¹ | half-life ([6]; 0.1 mg/kg, mean, 0.1 mg/kg single i.v., beagle dog, n = 5, read-out: t1/2 (converted)): 2.14 h | C0 ([6]; 0.1 mg/kg, median, 0.1 mg/kg single i.v., n = 5): 30.6 ng/mL | Vd [6, 8]: 127 L | clearance [6, 8]: 795 mL/min | k el [6, 8]: 0.000106 s⁻¹ | half-life ([6]; 0.1 mg/kg, median, 0.1 mg/kg single i.v., beagle dog, n = 5, read-out: t1/2 (converted)): 1.67 h | C0 ([6]; 0.3 mg/kg, mean, 0.3 mg/kg single i.v., back-extrapolated, n = 5): 111 ng/mL | Vd [6, 9]: 154 L | clearance [6, 9]: 793 mL/min | k el [6, 9]: 8.33e-05 s⁻¹ | half-life ([6]; 0.3 mg/kg, mean, 0.3 mg/kg single i.v., beagle dog, n = 5, read-out: t1/2 (converted)): 2.54 h | C0 ([6]; 0.3 mg/kg, median, 0.3 mg/kg single i.v., n = 5): 100 ng/mL | Vd [6, 10]: 103 L | clearance [6, 10]: 591 mL/min | k el [6, 10]: 8.61e-05 s⁻¹ | half-life ([6]; 0.3 mg/kg, median, 0.3 mg/kg single i.v., beagle dog, n = 5, read-out: t1/2 (converted)): 2.16 h | C0 ([6]; 1 mg/kg, mean, 1 mg/kg single i.v., back-extrapolated, n = 5): 223 ng/mL | Vd [6, 11]: 211 L | clearance [6, 11]: 1150 mL/min | k el [6, 11]: 9.17e-05 s⁻¹ | half-life ([6]; 1 mg/kg, mean, 1 mg/kg single i.v., beagle dog, n = 5, read-out: t1/2 (converted)): 2.04 h | C0 ([6]; 1 mg/kg, median, 1 mg/kg single i.v., n = 5): 197 ng/mL | Vd [6, 12]: 224 L | clearance [6, 12]: 1250 mL/min | k el [6, 12]: 8.89e-05 s⁻¹ | half-life ([6]; 1 mg/kg, median, 1 mg/kg single i.v., beagle dog, n = 5, read-out: t1/2 (converted)): 1.94 h | half-life ([6]; beagle dog, overall statement, read-out: half-life (converted)): ~2 h | AUC0-inf [6, 13]: 30.10 ng^∗h/mL | AUC0-tlast [6, 13]: 26.10 ng^∗h/mL | t1/2 ([6]; mean, 0.1 mg/kg single i.v., beagle dog, n = 5, 0.1 mg/kg): 2.02 h | AUC0-inf [6, 14]: 122.42 ng^∗h/mL | AUC0-tlast [6, 14]: 115.81 ng^∗h/mL | t1/2 ([6]; mean, 0.3 mg/kg single i.v., beagle dog, n = 5, 0.3 mg/kg): 2.36 h | AUC0-inf [6, 15]: 263.06 ng^∗h/mL | AUC0-tlast [6, 15]: 257.28 ng^∗h/mL | t1/2 ([6]; mean, 1 mg/kg single i.v., beagle dog, n = 5, 1 mg/kg): 2.13 h | AUC0-inf [6, 16]: 26.44 ng^∗h/mL | AUC0-tlast [6, 16]: 23.00 ng^∗h/mL | AUC%extrap [6, 16]: 3.42% | AUC0-inf [6, 17]: 133.20 ng^∗h/mL | AUC0-tlast [6, 17]: 127.76 ng^∗h/mL | AUC%extrap [6, 17]: 4.56% | AUC0-inf [6, 18]: 184.06 ng^∗h/mL | AUC0-tlast [6, 18]: 179.65 ng^∗h/mL | AUC%extrap [6, 18]: 4.55% | Dose linearity of pharmacokinetics ([6]; single i.v. doses up to 1.0 mg/kg, beagle dog): Linear pharmacokinetics
